Data reported in ChEMBL document CHEMBL3885861, “Open TG-GATES”.

Species: Rattus norvegicus
Experiment: Open TG-GATES - Regimen: Single
Type: toxicity, organism-based, Sprague-Dawley
Design: regimen Single, gender Male, age 6 weeks
Conditions: in vivo, po, 3 mg/kg, route gavage, dose level Low; for APTT / Bas / Eos / Fbg / Hb / Ht / Lym / MCH / MCHC / MCV / Mono / Neu / PT / Plat / RBC / Ret / WBC: tissue Blood; for KIDNEY_L / KIDNEY_R / KIDNEY_TOTAL: tissue Kidney; for LIVER: tissue Liver; for A/G / ALP / ALT / AST / BUN / CRE / Ca / Cl / DBIL / GLC / IP / K / LDH / Na / PL / RALB / TBIL / TC / TG / TP / gamma-GTP: tissue Plasma

## Nc1c2c(nc3ccccc13)CCCC2 [TACRINE]
3 h
  TERMINAL_BW: 208.2 g
  APTT: 21.3 s
  Bas: 0%
  Eos: 0.4%
  Fbg: 283.8 mg/dL
  Hb: 13.4 g/dL
  Ht: 39%
  Lym: 77%
  MCH: 21.5 pg
  MCHC: 34.4%
  MCV: 62.5 fL
  Mono: 2.2%
  Neu: 19.4%
  PT: 16.1 s
  Plat: 120.6 x10_4/uL
  RBC: 623.8 x10_4/ul
  Ret: 8.2%
  WBC: 90.3 x10_2/uL
  KIDNEY_L: 0.9 g
  KIDNEY_R: 0.9 g
  KIDNEY_TOTAL: 1.9 g
  LIVER: 9.4 g
  A/G: 1.3
  ALP: 1562.6 IU/L
  ALT: 45.6 IU/L
  AST: 79.6 IU/L
  BUN: 13.4 mg/dL
  CRE: 0.2 mg/dL
  Ca: 10.7 mg/dL
  Cl: 107 meq/L
  DBIL: 0.002 mg/dL
  GLC: 184.2 mg/dL
  IP: 8 mg/dL
  K: 4 meq/L
  LDH: 251.6 IU/L
  Na: 142.6 meq/L
  PL: 139.2 mg/dL
  RALB: 3 g/dL
  TBIL: 0.024 mg/dL
  TC: 75 mg/dL
  TG: 64 mg/dL
  TP: 5.4 g/dL
  gamma-GTP: 1 IU/L
6 h
  TERMINAL_BW: 200.8 g
  APTT: 20.8 s
  Bas: 0%
  Eos: 0.8%
  Fbg: 312.8 mg/dL
  Hb: 13.6 g/dL
  Ht: 39.2%
  Lym: 78.8%
  MCH: 21.2 pg
  MCHC: 34.6%
  MCV: 61.2 fL
  Mono: 2.4%
  Neu: 17.2%
  PT: 15.6 s
  Plat: 125.6 x10_4/uL
  RBC: 641 x10_4/ul
  Ret: 7.7%
  WBC: 102.1 x10_2/uL
  KIDNEY_L: 0.9 g
  KIDNEY_R: 0.9 g
  KIDNEY_TOTAL: 1.8 g
  LIVER: 8.7 g
  A/G: 1.2
  ALP: 1243.4 IU/L
  ALT: 34.8 IU/L
  AST: 67.2 IU/L
  BUN: 11.4 mg/dL
  CRE: 0.2 mg/dL
  Ca: 10.6 mg/dL
  Cl: 106.8 meq/L
  DBIL: 0.002 mg/dL
  GLC: 175.6 mg/dL
  IP: 9 mg/dL
  K: 4.4 meq/L
  LDH: 200 IU/L
  Na: 142 meq/L
  PL: 148 mg/dL
  RALB: 3.1 g/dL
  TBIL: 0.024 mg/dL
  TC: 76 mg/dL
  TG: 89.6 mg/dL
  TP: 5.5 g/dL
  gamma-GTP: 1 IU/L
9 h
  TERMINAL_BW: 200.1 g
  APTT: 19.8 s
  Bas: 0%
  Eos: 1%
  Fbg: 303.6 mg/dL
  Hb: 13.4 g/dL
  Ht: 39%
  Lym: 78.2%
  MCH: 20.9 pg
  MCHC: 34.4%
  MCV: 60.7 fL
  Mono: 2.6%
  Neu: 17.8%
  PT: 16.3 s
  Plat: 115.2 x10_4/uL
  RBC: 643 x10_4/ul
  Ret: 7.8%
  WBC: 92.4 x10_2/uL
  KIDNEY_L: 0.9 g
  KIDNEY_R: 0.9 g
  KIDNEY_TOTAL: 1.8 g
  LIVER: 8.3 g
  A/G: 1.2
  ALP: 1371.2 IU/L
  ALT: 36 IU/L
  AST: 70.6 IU/L
  BUN: 12.4 mg/dL
  CRE: 0.1 mg/dL
  Ca: 10.6 mg/dL
  Cl: 107.8 meq/L
  DBIL: 0.002 mg/dL
  GLC: 181.6 mg/dL
  IP: 9.8 mg/dL
  K: 4.5 meq/L
  LDH: 253.4 IU/L
  Na: 141.6 meq/L
  PL: 134.4 mg/dL
  RALB: 2.9 g/dL
  TBIL: 0.012 mg/dL
  TC: 69.8 mg/dL
  TG: 97.8 mg/dL
  TP: 5.4 g/dL
  gamma-GTP: 1 IU/L
24 h
  TERMINAL_BW: 217.8 g
  APTT: 21.2 s
  Bas: 0%
  Eos: 1%
  Fbg: 292 mg/dL
  Hb: 13.6 g/dL
  Ht: 39.7%
  Lym: 80.8%
  MCH: 21.3 pg
  MCHC: 34.2%
  MCV: 62.4 fL
  Mono: 3%
  Neu: 14.4%
  PT: 16.2 s
  Plat: 113.1 x10_4/uL
  RBC: 636.6 x10_4/ul
  Ret: 7.5%
  WBC: 92.6 x10_2/uL
  KIDNEY_L: 1 g
  KIDNEY_R: 1 g
  KIDNEY_TOTAL: 1.9 g
  LIVER: 10 g
  A/G: 1.3
  ALP: 1864.4 IU/L
  ALT: 46.8 IU/L
  AST: 80 IU/L
  BUN: 15.6 mg/dL
  CRE: 0.1 mg/dL
  Ca: 10.8 mg/dL
  Cl: 107.8 meq/L
  DBIL: 0.002 mg/dL
  GLC: 197.4 mg/dL
  IP: 7.2 mg/dL
  K: 4.1 meq/L
  LDH: 293.2 IU/L
  Na: 141.6 meq/L
  PL: 146.8 mg/dL
  RALB: 3.1 g/dL
  TBIL: 0.032 mg/dL
  TC: 74.4 mg/dL
  TG: 107 mg/dL
  TP: 5.5 g/dL
  gamma-GTP: 1 IU/L
